Laboratory results as given in paper PMC9785231, “Synthesis and Pharmacological Evaluation of Enantiopure N-Substituted Ortho-c Oxide-Bridged 5-Phenylmorphans” (Molecules, 2022).
Where a name gives a salt, the structure may show the parent alone.

Legend:
κ-opioid receptor (KOR) = biological target: T1, κ-opioid receptor (KOR) (Rattus norvegicus, UniProt P34975); test: Opioid receptor binding, KOR ([3H]U69,593), rat brain homogenate; conditions: for KOR Binding, activity in exploratory binding assays: 100 nM concentration, displacement of radioligand; for Ki: [3H]U69,593, whole rat brains excluding cerebellum, read-out: KOR Binding (Ki ± SEM)
T1 construct: All assay tubes contained 100 μL homogenate suspension; from tissue; host or cells: whole rat brain excluding cerebellum, membrane homogenate
T1 sequence (P34975 whole entry): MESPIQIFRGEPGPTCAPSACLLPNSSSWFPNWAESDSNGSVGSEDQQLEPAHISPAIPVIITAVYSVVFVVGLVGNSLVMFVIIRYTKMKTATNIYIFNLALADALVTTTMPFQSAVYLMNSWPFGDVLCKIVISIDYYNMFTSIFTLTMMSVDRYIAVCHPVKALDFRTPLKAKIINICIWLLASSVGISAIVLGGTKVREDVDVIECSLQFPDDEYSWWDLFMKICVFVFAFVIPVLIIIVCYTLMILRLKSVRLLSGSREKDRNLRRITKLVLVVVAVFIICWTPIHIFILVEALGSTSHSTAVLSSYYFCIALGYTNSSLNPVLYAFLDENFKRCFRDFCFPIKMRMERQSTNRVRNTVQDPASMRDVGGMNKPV

μ-opioid receptor (MOR) = biological target: T2, μ-opioid receptor (MOR) (Rattus norvegicus, UniProt P33535); test: Opioid receptor binding, MOR ([3H]DAMGO), rat brain homogenate; conditions: for MOR Binding, activity in exploratory binding assays: 100 nM concentration, displacement of radioligand; for Ki: [3H]DAMGO, whole rat brains excluding cerebellum, read-out: MOR Binding (Ki ± SEM)
T2 construct: All assay tubes contained 100 μL homogenate suspension; from tissue; host or cells: whole rat brain excluding cerebellum, membrane homogenate
T2 sequence (P33535 whole entry): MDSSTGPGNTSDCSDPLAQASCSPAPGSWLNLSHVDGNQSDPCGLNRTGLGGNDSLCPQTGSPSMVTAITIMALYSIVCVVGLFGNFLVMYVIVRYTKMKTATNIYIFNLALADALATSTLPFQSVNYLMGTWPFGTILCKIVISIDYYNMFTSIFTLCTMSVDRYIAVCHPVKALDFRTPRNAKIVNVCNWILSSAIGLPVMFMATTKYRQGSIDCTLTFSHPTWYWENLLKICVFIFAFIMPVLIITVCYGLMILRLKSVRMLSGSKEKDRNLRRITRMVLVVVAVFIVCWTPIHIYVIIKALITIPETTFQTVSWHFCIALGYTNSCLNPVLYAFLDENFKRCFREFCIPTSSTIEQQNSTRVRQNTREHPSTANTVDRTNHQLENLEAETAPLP

δ-opioid receptor (DOR) = biological target: T3, δ-opioid receptor (DOR) (Rattus norvegicus, UniProt P33533); test: Opioid receptor binding, DOR ([3H]DADLE), rat brain homogenate; conditions: for DOR Binding, activity in exploratory binding assays: 100 nM concentration, displacement of radioligand
T3 construct: All assay tubes contained 100 μL homogenate suspension; from tissue; host or cells: whole rat brain excluding cerebellum, membrane homogenate
T3 sequence (P33533 whole entry): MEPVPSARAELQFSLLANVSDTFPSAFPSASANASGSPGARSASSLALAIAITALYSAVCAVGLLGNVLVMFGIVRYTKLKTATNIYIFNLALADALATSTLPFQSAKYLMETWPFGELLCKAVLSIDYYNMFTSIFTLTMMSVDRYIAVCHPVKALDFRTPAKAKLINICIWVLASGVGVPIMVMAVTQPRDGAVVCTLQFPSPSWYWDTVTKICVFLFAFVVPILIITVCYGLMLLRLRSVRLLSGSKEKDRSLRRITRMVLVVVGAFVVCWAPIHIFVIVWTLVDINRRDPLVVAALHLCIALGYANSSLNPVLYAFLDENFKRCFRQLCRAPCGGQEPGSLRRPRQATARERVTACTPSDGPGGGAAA

CYP2D6 = biological target: T4, CYP2D6 (Homo sapiens, UniProt P10635); test: P450 inhibition, human liver microsomal CYP2D6; format: in vitro ADME; conditions: human, human liver microsomes, read-out: 2D6 %Inhibition
T4 construct: selected human liver microsomal cytochrome P450 isozymes (CYP1A2, CYP2C9, CYP2C19, CYP2D6, and CYP3A); from tissue; host or cells: human liver microsomes
T4 sequence (P10635 whole entry): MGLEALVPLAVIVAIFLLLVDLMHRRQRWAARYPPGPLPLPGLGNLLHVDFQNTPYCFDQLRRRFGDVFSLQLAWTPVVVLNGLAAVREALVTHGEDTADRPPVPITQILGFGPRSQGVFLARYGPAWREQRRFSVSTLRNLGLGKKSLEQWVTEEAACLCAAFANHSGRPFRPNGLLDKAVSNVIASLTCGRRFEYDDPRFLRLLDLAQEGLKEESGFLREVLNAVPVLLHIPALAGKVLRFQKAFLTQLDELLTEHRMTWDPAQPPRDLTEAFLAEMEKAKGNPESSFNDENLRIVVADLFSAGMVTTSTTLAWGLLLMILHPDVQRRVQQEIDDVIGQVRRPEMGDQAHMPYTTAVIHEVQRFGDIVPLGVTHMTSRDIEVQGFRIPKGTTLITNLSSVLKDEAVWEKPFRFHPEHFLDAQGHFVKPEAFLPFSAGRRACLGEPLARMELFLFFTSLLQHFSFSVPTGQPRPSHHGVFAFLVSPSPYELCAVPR

in vitro [1] = conditions: human, microsomes
[2] = Microsomal metabolic stability, human liver microsomes; conditions: for Remaining (NCF = 60 min): HLM 0.5, no co-factor (no NADPH); for Remaining (T = 60 min): HLM 0.5, with NADPH
in vitro [3] = conditions: mouse, microsomes
[4] = Microsomal metabolic stability, mouse liver microsomes; conditions: for Remaining (NCF = 60 min): MLM 0.5, no co-factor (no NADPH); for Remaining (T = 60 min): MLM 0.5, with NADPH
mu-opioid receptor (MOR) = conditions: racemate; read-out: mu-opioid receptor affinity Ki; cited from earlier work

## Oc1cccc2c1O[C@@H]1CN(C[C@@H]3C[C@@H]3c3ccccc3)[C@@H]3CCC[C@]21C3 [(-)-19, (3R,6aS,11aS)-2-(((1R,2S)-2-phenylcyclopropyl)methyl)-1,3,4,5,6,11a-hexahydro-2H-3,6a-methanobenzofuro[2,3-c]azocin-10-ol]
κ-opioid receptor (KOR)
  KOR Binding, activity in exploratory binding assays: NT (NT = not tested—inactive (<50% activity at 100 nM concentration in exploratory binding assays (displaced less than half of radioligand))
μ-opioid receptor (MOR)
  MOR Binding, activity in exploratory binding assays: NT (NT = not tested—inactive (<50% activity at 100 nM concentration in exploratory binding assays (displaced less than half of radioligand))
δ-opioid receptor (DOR)
  DOR Binding, activity in exploratory binding assays: NT (NT = not tested—inactive (<50% activity at 100 nM concentration in exploratory binding assays (displaced less than half of radioligand))

## Oc1cccc2c1O[C@@H]1CN(C[C@@H]3C[C@@H]3c3ccccc3)[C@@H]3CCC[C@]21C3 (as salt: HBr) [(-)-19, (3R,6aS,11aS)-2-(((1R,2S)-2-phenylcyclopropyl)methyl)-1,3,4,5,6,11a-hexahydro-2H-3,6a-methanobenzofuro[2,3-c]azocin-10-ol]
other
  melting point: 193.3 to 198.3 °C

## Oc1cccc2c1O[C@H]1CN(C[C@@H]3C[C@H]3c3ccccc3)[C@H]3CCC[C@@]21C3 [(-)-16, (3S,6aR,11aR)-2-(((1R,2R)-2-Phenylcyclopropyl)methyl)-1,3,4,5,6,11a-hexahydro-2H-3,6a-methanobenzofuro[2,3-c]azocin-10-ol]
κ-opioid receptor (KOR)
  KOR Binding, activity in exploratory binding assays: NT (NT = not tested—inactive (<50% activity at 100 nM concentration in exploratory binding assays (displaced less than half of radioligand))
μ-opioid receptor (MOR)
  Ki: 109 ± 5.5 nM
δ-opioid receptor (DOR)
  DOR Binding, activity in exploratory binding assays: NT (NT = not tested—inactive (<50% activity at 100 nM concentration in exploratory binding assays (displaced less than half of radioligand))

## C=C[C@H]1C[N@@]2CC[C@H]1C[C@@H]2[C@@H](O)c1ccnc2ccc(OC)cc12 [Quinidine, reference compound]
CYP2D6
  inhibition at 10 µM: 94.2%

## O=C(O)Cc1ccccc1Nc1c(Cl)cccc1Cl [Diclofenac]
In vitro [1]
  CLint scaled: 162 mL/min/kg
[2]
  Remaining (NCF = 60 min): 95.1%
  Remaining (T = 60 min): 0.4%
In vitro [3]
  microsomal CLint: 35.4 µL/min/mg
[4]
  Remaining (NCF = 60 min): 99.4%
  Remaining (T = 60 min): 33.5%

## Oc1cccc2c1O[C@@H]1CN(C[C@@H]3C[C@H]3c3ccccc3)[C@@H]3CCC[C@]21C3 (as salt: HCl) [(-)-17, (3R,6aS,11aS)-2-(((1R,2R)-2-Phenylcyclopropyl)methyl)-1,3,4,5,6,11a-hexahydro-2H-3,6a-methanobenzofuro[2,3-c]azocin-10-ol]
other
  melting point: 208.2 to 213.2 °C

## Oc1cccc2c1O[C@@H]1CN(C[C@H]3C[C@H]3c3ccccc3)[C@@H]3CCC[C@]21C3 [(+)-18, (3R,6aS,11aS)-2-(((1S,2R)-2-Phenylcyclopropyl)methyl)-1,3,4,5,6,11a-hexahydro-2H-3,6a-methanobenzofuro[2,3-c]azocin-10-ol]
κ-opioid receptor (KOR)
  KOR Binding, activity in exploratory binding assays: NT (NT = not tested—inactive (<50% activity at 100 nM concentration in exploratory binding assays (displaced less than half of radioligand))
μ-opioid receptor (MOR)
  MOR Binding, activity in exploratory binding assays: NT (NT = not tested—inactive (<50% activity at 100 nM concentration in exploratory binding assays (displaced less than half of radioligand))
δ-opioid receptor (DOR)
  DOR Binding, activity in exploratory binding assays: NT (NT = not tested—inactive (<50% activity at 100 nM concentration in exploratory binding assays (displaced less than half of radioligand))

## Oc1cccc2c1O[C@@H]1CN(C[C@H]3C[C@@H]3c3ccccc3)[C@@H]3CCC[C@]21C3 [(+)-16, (3R,6aS,11aS)-2-(((1S,2S)-2-Phenylcyclopropyl)methyl)-1,3,4,5,6,11a-hexahydro-2H-3,6a-methanobenzofuro[2,3-c]azocin-10-ol]
κ-opioid receptor (KOR)
  KOR Binding, activity in exploratory binding assays: NT (NT = not tested—inactive (<50% activity at 100 nM concentration in exploratory binding assays (displaced less than half of radioligand))
μ-opioid receptor (MOR)
  MOR Binding, activity in exploratory binding assays: NT (NT = not tested—inactive (<50% activity at 100 nM concentration in exploratory binding assays (displaced less than half of radioligand))
δ-opioid receptor (DOR)
  DOR Binding, activity in exploratory binding assays: NT (NT = not tested—inactive (<50% activity at 100 nM concentration in exploratory binding assays (displaced less than half of radioligand))

## Oc1cccc2c1O[C@H]1CN(C[C@H]3C[C@H]3c3ccccc3)[C@H]3CCC[C@@]21C3 [(+)-19, (3S,6aR,11aR)-2-(((1S,2R)-2-Phenylcyclopropyl)methyl)-1,3,4,5,6,11a-hexahydro-2H-3,6a-methanobenzofuro[2,3-c]azocin-10-ol]
κ-opioid receptor (KOR)
  Ki: 67.3 ± 7.9 nM
μ-opioid receptor (MOR)
  Ki: 52.4 ± 5.1 nM
δ-opioid receptor (DOR)
  DOR Binding, activity in exploratory binding assays: NT (NT = not tested—inactive (<50% activity at 100 nM concentration in exploratory binding assays (displaced less than half of radioligand))

## Oc1cccc2c1O[C@H]1CN(C[C@H]3C[C@H]3c3ccccc3)[C@H]3CCC[C@@]21C3 (as salt: HCl) [(+)-19, (3S,6aR,11aR)-2-(((1S,2R)-2-Phenylcyclopropyl)methyl)-1,3,4,5,6,11a-hexahydro-2H-3,6a-methanobenzofuro[2,3-c]azocin-10-ol]
other
  melting point: 183.1 to 187.7 °C

## Oc1cccc2c1OC1CN(CCc3ccccc3)C3CCCC21C3 (racemic) [(±)-1]
mu-opioid receptor (MOR)
  Ki: 1.1 nM

## Oc1cccc2c1O[C@H]1CN(C[C@@H]3C[C@H]3c3ccccc3)[C@H]3CCC[C@@]21C3 (as salt: HCl) [(-)-16, (3S,6aR,11aR)-2-(((1R,2R)-2-Phenylcyclopropyl)methyl)-1,3,4,5,6,11a-hexahydro-2H-3,6a-methanobenzofuro[2,3-c]azocin-10-ol]
other
  melting point: 252.7 to 256.5 °C

## Oc1cccc2c1O[C@@H]1CN(C[C@H]3C[C@@H]3c3ccccc3)[C@@H]3CCC[C@]21C3 (as salt: HCl) [(+)-16, (3R,6aS,11aS)-2-(((1S,2S)-2-Phenylcyclopropyl)methyl)-1,3,4,5,6,11a-hexahydro-2H-3,6a-methanobenzofuro[2,3-c]azocin-10-ol]
other
  melting point: 246.6 to 251.6 °C

## Oc1cccc2c1O[C@H]1CN(C[C@H]3C[C@@H]3c3ccccc3)[C@H]3CCC[C@@]21C3 (as salt: HCl) [(+)-17, (3S,6aR,11aR)-2-(((1S,2S)-2-Phenylcyclopropyl)methyl)-1,3,4,5,6,11a-hexahydro-2H-3,6a-methanobenzofuro[2,3-c]azocin-10-ol]
other
  melting point: 187.2 to 192.2 °C

## C[C@]12CC[C@H]3[C@@H](CCC4=CC(=O)CC[C@@]43C)[C@@H]1CC[C@@H]2O [Testosterone]
In vitro [1]
  CLint scaled: 96.4 mL/min/kg
[2]
  Remaining (NCF = 60 min): 86.7%
  Remaining (T = 60 min): 3.9%
In vitro [3]
  CLint scaled: 1720 mL/min/kg
  half-life: 3.2 min
  microsomal CLint: 435 µL/min/mg
[4]
  Remaining (NCF = 60 min): 97.1%
  Remaining (T = 60 min): 0.0%

## Oc1cccc2c1O[C@@H]1CN(C[C@@H]3C[C@H]3c3ccccc3)[C@@H]3CCC[C@]21C3 [(-)-17, (3R,6aS,11aS)-2-(((1R,2R)-2-Phenylcyclopropyl)methyl)-1,3,4,5,6,11a-hexahydro-2H-3,6a-methanobenzofuro[2,3-c]azocin-10-ol]
κ-opioid receptor (KOR)
  KOR Binding, activity in exploratory binding assays: NT (NT = not tested—inactive (<50% activity at 100 nM concentration in exploratory binding assays (displaced less than half of radioligand))
μ-opioid receptor (MOR)
  MOR Binding, activity in exploratory binding assays: NT (NT = not tested—inactive (<50% activity at 100 nM concentration in exploratory binding assays (displaced less than half of radioligand))
δ-opioid receptor (DOR)
  DOR Binding, activity in exploratory binding assays: NT (NT = not tested—inactive (<50% activity at 100 nM concentration in exploratory binding assays (displaced less than half of radioligand))

## Oc1cccc2c1O[C@H]1CN(C[C@@H]3C[C@@H]3c3ccccc3)[C@H]3CCC[C@@]21C3 [(-)-18, (3S,6aR,11aR)-2-(((1R,2S)-2-Phenylcyclopropyl)methyl)-1,3,4,5,6,11a-hexahydro-2H-3,6a-methanobenzofuro[2,3-c]azocin-10-ol]
κ-opioid receptor (KOR)
  Ki: 109 ± 16 nM
δ-opioid receptor (DOR); [3H]DADLE, whole rat brains excluding cerebellum, read-out: DOR Binding (Ki ± SEM)
  Ki: 89 ± 13.4 nM

## Oc1cccc2c1O[C@H]1CN(C[C@@H]3C[C@@H]3c3ccccc3)[C@H]3CCC[C@@]21C3 (as salt: HCl) [(-)-18, (3S,6aR,11aR)-2-(((1R,2S)-2-Phenylcyclopropyl)methyl)-1,3,4,5,6,11a-hexahydro-2H-3,6a-methanobenzofuro[2,3-c]azocin-10-ol]
other
  melting point: 193.9 to 198.5 °C

## Oc1cccc2c1O[C@@H]1CN(C[C@H]3C[C@H]3c3ccccc3)[C@@H]3CCC[C@]21C3 (as salt: HCl) [(+)-18, (3R,6aS,11aS)-2-(((1S,2R)-2-Phenylcyclopropyl)methyl)-1,3,4,5,6,11a-hexahydro-2H-3,6a-methanobenzofuro[2,3-c]azocin-10-ol]
other
  melting point: 204.4 to 208.5 °C
